This is an account of results in patent publication US8084456B2, “Pyrazine-based tubulin inhibitors” (YM Biosciences Australia Pty Ltd, priority 2002, dated 2011).

The test system of test [1] is DU145 (Prostate Cancer) cells. As to the kind of experiment: Cellular growth assay (MTT), DU145. It is filed as cell-based. As to conditions: Homo sapiens, DU-145, 40 hr incubation, read-out: DU145 (inhibition of 50% of cellular growth). The method, then:
(§1) K562 (Chronic Myeloid Leukemia), PC3 (Prostate Cancer), and DU145 (Prostate Cancer) were obtained from the American Type Culture Collection (ATCC). K562 was grown in RPMI, with 10% FBS with Glutamx added. DU145 cells were cultured in DMED, with 10% FBS and Glutamx and MEM non-essential amino acids added. PC3 cells were grown in F12K medium, with 10% FBS and Glutamx and MEM non-essential amino acids added. All cells were grown at 37° C. in 5% CO2.

Test [2] relates to PC3 (Prostate Cancer) cells. Description: Cellular growth assay (MTT), PC3. It is filed as cell-based. The settings on record: Homo sapiens, PC-3, 40 hr incubation, read-out: PC3 (inhibition of 50% of cellular growth). The method, then:
as §1

The subject of test [3] is K562 (Chronic Myeloid Leukemia) cells. Description: Cellular growth assay (MTT), K562. As to conditions: Homo sapiens, 40 hr incubation, read-out: K562 (inhibition of 50% of cellular growth). It is filed as cell-based. The method, then: as §1
The target in another test is TelJak2 (Homo sapiens, UniProt O60674). Description: Cellular growth assay (MTT), BaF3 TEL/JAK2 cells. It is filed as cell-based. As to conditions: 40 hr incubation, read-out: TelJak2 (inhibition of 50% of cellular growth).
Sequence of TelJak2 (O60674 with tags, fused parts or gaps): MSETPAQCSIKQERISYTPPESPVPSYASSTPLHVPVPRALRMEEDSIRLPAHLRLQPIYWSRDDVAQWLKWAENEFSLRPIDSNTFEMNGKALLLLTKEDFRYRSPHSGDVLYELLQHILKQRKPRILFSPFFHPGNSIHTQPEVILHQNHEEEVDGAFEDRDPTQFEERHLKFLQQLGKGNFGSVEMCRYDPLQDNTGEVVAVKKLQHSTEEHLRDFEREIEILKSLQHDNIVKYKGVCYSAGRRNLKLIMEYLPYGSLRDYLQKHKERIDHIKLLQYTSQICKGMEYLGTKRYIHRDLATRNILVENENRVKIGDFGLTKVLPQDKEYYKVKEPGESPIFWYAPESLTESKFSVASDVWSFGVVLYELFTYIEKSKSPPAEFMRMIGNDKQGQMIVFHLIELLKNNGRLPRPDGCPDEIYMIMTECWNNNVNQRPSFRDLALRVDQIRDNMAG
Another test addresses TelJak3 (Homo sapiens, UniProt P52333). Description: Cellular growth assay (MTT), BaF3 TEL/JAK3 cells. It is filed as cell-based. As to conditions: 40 hr incubation, read-out: TelJak3 (inhibition of 50% of cellular growth).
The next test has as its system Tubulin. Description: Tubulin assay (turbidometric microtubule assembly). It is filed as biochemical. As to conditions: at 50 μM, absorbance at 340 nm, 37° C. The method, then: Turbidometric assays of microtubule assembly were performed by incubating microtubule protein in cuvettes at 37° C. in a thermostatically controlled spectrophotometer measuring the change in absorbance at 340 nm over time. The microtubule protein was incubated with the each test compound at 0° C. and polymerisation was initiated by addition of 1 mM GTP, prior to heating to 37° C.

Sequence of TelJak3 (P52333 with tags, fused parts or gaps): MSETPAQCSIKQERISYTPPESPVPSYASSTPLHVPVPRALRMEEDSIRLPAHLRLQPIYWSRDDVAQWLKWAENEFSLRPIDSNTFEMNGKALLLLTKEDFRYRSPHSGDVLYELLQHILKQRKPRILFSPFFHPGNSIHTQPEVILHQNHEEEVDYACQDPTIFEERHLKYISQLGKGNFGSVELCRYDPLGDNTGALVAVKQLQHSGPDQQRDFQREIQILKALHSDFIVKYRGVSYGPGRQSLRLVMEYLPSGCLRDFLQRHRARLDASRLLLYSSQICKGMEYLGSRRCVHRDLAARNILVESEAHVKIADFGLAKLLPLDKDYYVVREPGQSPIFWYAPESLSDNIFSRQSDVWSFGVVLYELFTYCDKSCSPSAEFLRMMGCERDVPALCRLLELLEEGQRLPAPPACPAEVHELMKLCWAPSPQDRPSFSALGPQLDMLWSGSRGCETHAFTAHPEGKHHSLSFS

With `CCCC(Nc1cncc(-c2ccc(O)c(OC)c2)n1)c1cccc(OC)c1` (stereo not drawn), the IC50 (in test [1]; in test [2]; in test [3]; on TelJak2; at TelJak3) was at most 20 µM in each case. For the same compound, the “Tubulin (inhibition of tubulin polymerisation)” value in the test with Tubulin is listed as “+ (inhibited tubulin polymerisation by greater than 50% at 50 μM)”.

Turning to `CCCC(Nc1cncc(-c2ccc(O)c(OC)c2)n1)c1ccc(Cl)cc1` (stereo not drawn), the IC50 (in test [1]; in test [2]; in test [3]; at TelJak2; at TelJak3) was at most 20 µM each time. For the same compound, the “Tubulin (inhibition of tubulin polymerisation)” value in the test with Tubulin was “+ (inhibited tubulin polymerisation by greater than 50% at 50 μM)”.

With `CCCC(Nc1cncc(-c2ccc(O)c(OC)c2)n1)c1ccc(C)cc1` (stereo not drawn), the IC50 (in test [1]; in test [2]; in test [3]; on TelJak2; at TelJak3) was at most 20 µM throughout. Also, the “Tubulin (inhibition of tubulin polymerisation)” value in the test on Tubulin was “+ (inhibited tubulin polymerisation by greater than 50% at 50 μM)”.

As for `CCCC(Nc1cncc(-c2ccc(O)c(OC)c2)n1)c1ccc(OC)cc1` (stereo not drawn), the IC50 (in test [1]; in test [2]; in test [3]; on TelJak2; at TelJak3) was at most 20 µM throughout. Further, the “Tubulin (inhibition of tubulin polymerisation)” value in the test with Tubulin was “+ (inhibited tubulin polymerisation by greater than 50% at 50 μM)”.

Turning to `CCCC(Nc1cncc(-c2ccc(O)c(OC)c2)n1)c1cccc(Cl)c1` (stereo not drawn), the IC50 (in test [1]; in test [2]; in test [3]; at TelJak2; at TelJak3) was at most 20 µM each time. Besides, in the test with Tubulin, the “Tubulin (inhibition of tubulin polymerisation)” value was “+ (inhibited tubulin polymerisation by greater than 50% at 50 μM)”.

For `CCCC(Nc1cncc(-c2ccc(O)c(OC)c2)n1)c1cccc(F)c1` (stereo not drawn), the IC50 (in test [1]; in test [2]; in test [3]; at TelJak2; at TelJak3) was at most 20 µM in each case. In addition, the “Tubulin (inhibition of tubulin polymerisation)” value in the test with Tubulin is on record as “+ (inhibited tubulin polymerisation by greater than 50% at 50 μM)”.

In the case of `CCCC(Nc1cncc(-c2ccc(O)c(OC)c2)n1)c1cccc(O)c1` (stereo not drawn), the IC50 was over 20 µM in test [1]; over 20 µM in test [2]; at most 20 µM in test [3]; at most 20 µM at TelJak2; at most 20 µM at TelJak3. Besides, in the test on Tubulin, the “Tubulin (inhibition of tubulin polymerisation)” value is listed as “+ (inhibited tubulin polymerisation by greater than 50% at 50 μM)”.

Consider `CCCC(Nc1cncc(-c2ccc(O)c(OC)c2)n1)c1cccc(C)c1` (stereo not drawn), for which the IC50 (in test [1]; in test [2]; in test [3]; at TelJak2; at TelJak3) was at most 20 µM throughout. The “Tubulin (inhibition of tubulin polymerisation)” value in the test on Tubulin is “+ (inhibited tubulin polymerisation by greater than 50% at 50 μM)”.

For the compound `COc1cc(-c2cncc(NC(CCO)c3ccccc3)n2)ccc1O` (stereo not drawn), the IC50 in test [1] is over 20 µM; in test [2], over 20 µM; in test [3] it was over 20 µM; at TelJak2 it was at most 20 µM; on TelJak3, at most 20 µM.

With `CCCC(Nc1cncc(-c2ccc(O)c(OC)c2)n1)c1ccc(N(CC)CC)cc1` (stereo not drawn), the IC50 in test [1] was at most 20 µM; in test [2] it was over 20 µM; in test [3], over 20 µM; at TelJak2, at most 20 µM; at TelJak3, at most 20 µM.

Turning to `CCCC(Nc1cncc(-c2ccc(O)c(OC)c2)n1)c1ccc(OC)c(OC)c1` (stereo not drawn), the IC50 in test [1] is at most 20 µM; in test [2], over 20 µM; in test [3], at most 20 µM; on TelJak2 it was at most 20 µM; on TelJak3 it was at most 20 µM.

Take `CCCC(Nc1cncc(-c2ccc(N)c(OC)c2)n1)c1ccc(F)cc1` (stereo not drawn): the IC50 (in test [1]; in test [2]; in test [3]; on TelJak2; on TelJak3) was at most 20 µM throughout. Besides, in the test with Tubulin, the “Tubulin (inhibition of tubulin polymerisation)” value was “+ (inhibited tubulin polymerisation by greater than 50% at 50 μM)”.

For `CCCC(Nc1cncc(-c2ccc(O)c(OC)c2)n1)c1cccc(N)c1` (stereo not drawn), the IC50 in test [1] was over 20 µM; in test [2], at most 20 µM; in test [3], at most 20 µM; on TelJak2 it was at most 20 µM; on TelJak3 it was at most 20 µM. Further, in the test with Tubulin, the “Tubulin (inhibition of tubulin polymerisation)” value is “+ (inhibited tubulin polymerisation by greater than 50% at 50 μM)”.

On to `CCC[C@H](Nc1cncc(-c2ccc(O)c(OC)c2)n1)c1cccnc1`, for which the IC50 (in test [1]; in test [2]; in test [3]; at TelJak2; on TelJak3) was at most 20 µM in each case. In addition, in the test with Tubulin, the “Tubulin (inhibition of tubulin polymerisation)” value was “+ (inhibited tubulin polymerisation by greater than 50% at 50 μM)”.

On to `CCCC(Nc1nc(-c2ccc(O)c(OC)c2)cnc1C)c1ccccc1` (stereo not drawn), for which the IC50 (in test [1]; in test [2]; in test [3]; at TelJak2; on TelJak3) was at most 20 µM throughout. Moreover, the “Tubulin (inhibition of tubulin polymerisation)” value in the test with Tubulin is “+ (inhibited tubulin polymerisation by greater than 50% at 50 μM)”.

`CCCC(Nc1cncc(-c2ccc(O)c(OC)c2)n1)c1cccc(C(=O)OC)c1` (stereo not drawn): the IC50 (in test [1]; in test [2]; in test [3]; at TelJak2; on TelJak3) was at most 20 µM throughout. Besides, the “Tubulin (inhibition of tubulin polymerisation)” value in the test on Tubulin was “+ (inhibited tubulin polymerisation by greater than 50% at 50 μM)”.

Turning to `CCCC(Nc1cncc(-c2ccc(O)c(OC)c2)n1)c1cccc(NC(=O)c2cccnc2)c1` (stereo not drawn), the IC50 (in test [1]; in test [2]; in test [3]; at TelJak2; on TelJak3) was at most 20 µM throughout. Besides, the “Tubulin (inhibition of tubulin polymerisation)” value with Tubulin is given as “+ (inhibited tubulin polymerisation by greater than 50% at 50 μM)”.

As to `CCCC(Nc1cncc(-c2ccc(O)c(OC)c2)n1)c1cc(F)cc(F)c1` (stereo not drawn), the IC50 in test [1] was over 20 µM; in test [2], over 20 µM; in test [3], at most 20 µM; at TelJak2 it was at most 20 µM; on TelJak3 it was at most 20 µM. In addition, in the test on Tubulin, the “Tubulin (inhibition of tubulin polymerisation)” value is given as “+ (inhibited tubulin polymerisation by greater than 50% at 50 μM)”.

As for `CCCC(Nc1cncc(-c2ccc(O)c(OC)c2)n1)c1cncc(C)c1` (stereo not drawn), the IC50 is over 20 µM in test [1]; at most 20 µM in test [2]; at most 20 µM in test [3]; at most 20 µM at TelJak2; at most 20 µM on TelJak3. Further, the “Tubulin (inhibition of tubulin polymerisation)” value in the test with Tubulin is on record as “+ (inhibited tubulin polymerisation by greater than 50% at 50 μM)”.

As to `CCC[C@H](Nc1cncc(-c2ccc(N)c(OC)c2)n1)c1ccccc1`, the IC50 (in test [1]; in test [2]; in test [3]; at TelJak2; on TelJak3) was at most 20 µM in each case. Also, in the test with Tubulin, the “Tubulin (inhibition of tubulin polymerisation)” value is “+ (inhibited tubulin polymerisation by greater than 50% at 50 μM)”.

In the case of `CCCC(Nc1cncc(-c2ccc(N)c(OC)c2)n1)c1cccnc1` (stereo not drawn), the IC50 (in test [1]; in test [2]; in test [3]; at TelJak2; at TelJak3) was at most 20 µM each time. For the same compound, the “Tubulin (inhibition of tubulin polymerisation)” value with Tubulin is recorded as “+ (inhibited tubulin polymerisation by greater than 50% at 50 μM)”.

In the case of `CCCC(Nc1cncc(-c2ccc(O)c(OC(C)C)c2)n1)c1cccnc1` (stereo not drawn), the IC50 (in test [1]; in test [2]; in test [3]; on TelJak2; at TelJak3) was at most 20 µM in each case. Besides, the “Tubulin (inhibition of tubulin polymerisation)” value with Tubulin is listed as “+ (inhibited tubulin polymerisation by greater than 50% at 50 μM)”.

In the case of `COCCC(Nc1cncc(-c2ccc(O)c(OC)c2)n1)c1ccccc1` (stereo not drawn), the IC50 (in test [1]; in test [2]; in test [3]; on TelJak2; on TelJak3) was at most 20 µM throughout. In addition, the “Tubulin (inhibition of tubulin polymerisation)” value with Tubulin is on record as “+ (inhibited tubulin polymerisation by greater than 50% at 50 μM)”.

Take `CCCC(Nc1cnc(C)c(-c2ccc(N)c(OC)c2)n1)c1ccccc1` (stereo not drawn): the IC50 (in test [1]; in test [2]; in test [3]; on TelJak2; on TelJak3) was at most 20 µM throughout. Moreover, the “Tubulin (inhibition of tubulin polymerisation)” value in the test with Tubulin is recorded as “+ (inhibited tubulin polymerisation by greater than 50% at 50 μM)”.

Take `CCCC(Nc1nc(-c2ccc(N)c(OC)c2)cnc1C)c1ccccc1` (stereo not drawn): the IC50 (in test [1]; in test [2]; in test [3]; at TelJak2; at TelJak3) was at most 20 µM in each case. Further, the “Tubulin (inhibition of tubulin polymerisation)” value in the test with Tubulin was “+ (inhibited tubulin polymerisation by greater than 50% at 50 μM)”.
